Measured values taken from patent publication US7855200B2, “Method for treatment of gastric ulcers and ulcers induced by aspirin” (Council of Scientific and Industrial Research, priority 2006, dated 2010).

What was measured:
Assay type in all cases: in vivo, albino rats
[1] = test system: ethanol induced gastric ulcers; experiment: Ethanol induced ulcers; details: rats, ethanol challenge; for Acidity Total mEg / Gastric content / pH: 4 hours after pylorus ligation
Description: Stress induced gastric ulceration The commercially available drug ranitidine (sigma), Omeprazole (sigma) and sucralfate (Merck) were used as reference standard in experimental models. The Tween-80 (SD fine chemicals) was used as vehicle for the administration of the drug, which is used as control. The animals were divided into 22 groups of 6 animals each. Animals were deprived of food for 48 hours but had free access to water. Group 1 received the vehicle Tween 80 (1%, 1 ml) which served as the control. Group 2 received ranitidine at a dose of 50-mg/kg-body weight, which served as standard for comparison. Group 3 to received Omeprazole at a dose of 30-mg/kg body weight, which served as standard for comparison. Group 4 received sucralfate at a dose of 400-mg/kg body weight, which served as standard for comparison. Group 5 to 22 received at a dose of 25 mg/kg body weight. Lesions were induced 1 hour after ethanol challenge animals. The stomach was ligated at the pylorus under ether anesthesia. 4 hours after pylorus ligation, the animals were sacrificed and the contents drained and centrifuges at 5000 rpm for 10 minutes. Aliquots of supernatant were used for determination of total acid by titrating with 0.01N NaOH using topfers reagent and phenolphthalein indicators. […] The animals were divided into 9 groups of 6 animals each. Animals were deprived of food for 48 hours but had free access to water. Group 1 received the vehicle Tween 80 (1%, 1 ml) which served as the control. Group 2 received ranitidine at a dose of 50-mg/kg-body weight, which served as standard for comparison. Group 3 to received Omeprazole at a dose of 30-mg/kg body weight, which served as standard for comparison. Group 4 received sucralfate at a dose of 400-mg/kg body weight, which served as standard for comparison. […] Lesions were induced 1 hour after ethanol challenge animals. The stomach was ligated at the pylorus under ether anesthesia. 4 hours after pylorus ligation, the animals were sacrificed and the contents drained and centrifuges at 5000 rpm for 10 minutes. Aliquots of supernatant were used for determination of total acid by titrating with 0.01N NaOH using topfers reagent and phenolphthalein indicators.

[2] = test system: acetyl salicylic acid induced gastric lesions; experiment: Acetyl salicylic acid (aspirin) induced gastric ulcer; design: Ulcer index Mean(SE): scale not given here; details: rats, aspirin 200 mg/kg
Description: Stress induced gastric ulceration The commercially available drug ranitidine (sigma), Omeprazole (sigma) and sucralfate (Merck) were used as reference standard in experimental models. The Tween-80 (SD fine chemicals) was used as vehicle for the administration of the drug, which is used as control. Antiulcer activity of the compounds under taken was studied. The animals were divided into 20 groups of 6 animals each. Group 1 received the vehicle Tween 80 (1%, 1 ml) which served as the control. Group 2 received ranitidine at a dose of 50-mg/kg body weight, which served as standard for comparison. Group 3 to 20 at a dose of 25 mg/kg body weight. Rats were administered per orally with a daily dose of the compounds and the drug ranitidine for a period of five days and then fasted for 24 hours. The […] acetyl salicylic acid (aspirin) at a dose of 200 mg/kg body weight was administered as a suspension in tween-80 (1%), 30 min after the drug administration each day. All drugs were administered orally on the 6th day after the last administration of the drugs and the ulcer inducing agent aspirin, the rats were killed by cervical dislocation and their stomach were opened along the greater curvature and washed with luke warm saline and examined under a dissecting microscope. The ulcer index was calculated for each stomach. […] The antiulcer activity of the compounds was studied. The animals were divided into 19 groups of 6 animals each. Group 1 received the vehicle Tween 80 (1%, 1 ml) which served as the control. Group 2 received ranitidine at a dose of 50-mg/kg-body weight, which served as standard for comparison. […] Rats were administered per orally with a daily dose of the compounds and the drug ranitidine to respective groups for a period of five days and then fasted for 24 hours. The […] acetyl salicylic acid (aspirin) at a dose of 200 mg/kg body weight was administered as a suspension in tween-80 (1%), 30 min after the drug administration each day. All drugs were administered orally on ht […] day after the last administration of the drugs and the ulcer inducing agent aspirin, the rats were killed by cervical dislocation and their stomach were opened along the greater curvature and washed with luke warm saline and examined under a dissecting microscope.

[3] = test system: gastric ulceration in cold restraint rats; experiment: Cold restraint (stress) induced ulcers; design: Ulcer index Mean(SE): scale not given here; details: rats, 4° C. for 2 hours
From the text: (§1) The compounds taken under study for antigastric ulcer screening by four different models were selected using experimental albino rats: • 1. Aspirin induced gastric ulceration • 2. Pylorus ligated gastric ulceration • 3. Ethanol induced gastric ulceration • 4. Stress induced gastric ulceration
(§2) The commercially available drug ranitidine (sigma), Omeprazole (sigma) and sucralfate (Merck) were used as reference standard in experimental models. The Tween-80 (SD fine chemicals) was used as vehicle for the administration of the drug, which is used as control.
(§3) The antiulcer activity of the compounds was studied. The animals were divided into 21 groups of 7 animals each. Group 1 received the vehicle Tween 80 (1%, 1 ml) which served as the control. Group 2 received ranitidine at a dose of 50-mg/kg body weight, which served as standard for comparison. Group 3 to 21 at a dose of 25 mg/kg body weight. Animals were deprived of food 48 hours before the experiment. The water was allowed for free access. Rats were administered per orally with compounds and the drug ranitidine. The water was removed 1 hour before restraint and exposed to a temperature of 4° C. for 2 hours. Two hours after stress, the animals were sacrificed. The stressed animals were opened along the greater curvature and the severity of gastric ulcer was assessed in terms of mean ulcer index. 2.
as §3, with “8” for “21”, “6” for “7”, “50, 25, 15, 10 and 5” for “25”, “weight respectively.” for “weight.”, “index.” for “index. 2.”

Pylorus ligated rats = experiment: Pylorus ligated ulcers; details: 4 hours after pylorus ligation
From the text: as §1, §2
The animals were divided into 19 groups of 6 animals each. Animals were deprived of food for 48 hours but had free access to water. Group 1 received the vehicle Tween 80 (1%, 1 ml) which served as the control. Group 2 received ranitidine at a dose of 50-mg/kg-body weight, which served as standard for comparison. […] After one hour of administration of drug the stomach was ligated at the pylorus under ether anesthesia. 4 hours after pylorus ligation, the animals were sacrificed and the contents drained and centrifuges at 5000 rpm for 10 minutes. Aliquots of supernatant were used for determination of total acid by titrating with 0.01N NaOH using topfers reagent and phenolphthalein indicators. 4.
The animals were divided into 7 groups of 6 animals each. Animals were deprived of food for 48 hours but had free access to water. Group 1 received the vehicle Tween 80 (1%, 1 ml) which served as the control. Group 2 received ranitidine at a dose of 50-mg/kg-body weight, which served as standard for comparison. Group 3 to 7 received at a dose of 50, 25, 15, 10 and 5 mg/kg body weight respectively. After one hour of administration of drug the stomach was ligated at the pylorus under ether anesthesia. 4 hours after pylorus ligation, the animals were sacrificed and the contents drained and centrifuges at 5000 rpm for 10 minutes. Aliquots of supernatant were used for determination of total acid by titrating with 0.01N NaOH using topfers reagent and phenolphthalein indicators.

[4] = Rattus norvegicus, po, 120 h, 25 mg/kg per orally daily for five days
[5] = 25 mg/kg per orally daily for five days
[6] = Rattus norvegicus, po, 25 mg/kg per orally

| SMILES | inhibition at 25 mg/kg ([1]; Rattus norvegicus, 25 mg/kg) | Ulcer index Mean(SE) ([1]; 25 mg/kg) | Acidity Total mEg ([1]; 25 mg/kg) | Gastric content ([1]; 25 mg/kg) | pH ([1]; 25 mg/kg) | inhibition at 25 mg/kg [2, 4] | Ulcer index Mean(SE) [2, 5] | inhibition at 25 mg/kg [3, 6] | Ulcer index Mean(SE) ([3]; 25 mg/kg per orally) | Acidity Total mEg (Pylorus ligated rats; 25 mg/kg) | Gastric content (Pylorus ligated rats; 25 mg/kg) | Ulcer index Mean(SE) (Pylorus ligated rats; 25 mg/kg) | pH (Pylorus ligated rats; 25 mg/kg) | inhibition at 25 mg/kg (Pylorus ligated rats; Rattus norvegicus, 25 mg/kg) | Inhibition % ([1]; 25 mg/kg) | Inhibition % [2, 5] | Inhibition % ([3]; 25 mg/kg per orally) | Inhibition % (Pylorus ligated rats; 25 mg/kg) | other results |
| --- | --- | --- | --- | --- | --- | --- | --- | --- | --- | --- | --- | --- | --- | --- | --- | --- | --- | --- | --- |
| COc1c(OC2OC(C(=O)O)C(O)C(O)C2O)cc2oc(-c3ccccc3)cc(=O)c2c1O (stereo not shown) [OA-5 acid, 3,4,5-Trihydroxy-6-(5-hydroxy-6-methoxy-4-oxo-2-phenyl-4H-chromen-7-yloxy)-tetrahydro-pyran-2-carboxylic acid] | 45% | 36.66 (±3.33) | 47.66 (±1.45) mEg | 5.50 (±0.28) | 3.20 (±0.17) | 48.3% | 23.33 | 41.9% | 23.33 | 41.00 (±0.57) m Eg | 2.16 (±0.16) | 38.33 (±1.66) | 3.03 (±0.03) | 23.5% | – | – | – | – | – |
| COc1c(OC2OC(CO)C(O)C(O)C2O)cc2oc(-c3ccccc3)cc(=O)c2c1O (stereo not shown) [OA-G, 5-Hydroxy-6-methoxy-2-phenyl-7-(3,4,5-trihydroxy-6-hydroxyrnethyl-tetrahydro-pyran-2-yloxy)-chromen-4-one] | – | 53.33 (±6.66) | 36.66 (±0.88) mEg | 4.33 (±0.11) | 4.31 (±0.11) | – | 30.66 | – | 32.33 | 41.66 (±1.66) m Eg | – | 35.00 (±2.88) | 3.20 (±0.15) | – | 20.00% | 32.05% | 19.52% | 30.16% | – |
| CCCCCCCCCCCCCCCCC(=O)Oc1cc2oc(-c3ccccc3)cc(=O)c2c(O)c1OC [ORC-16, Heptadecanoic acid 5-hydroxy-6-methoxy-4-oxo-2-phenyl-4H-chromen-7-yl ester] | 22.8% | 51.50 (±1.05) | 43.20 (±3.86) mEg | 3.7 (±0.10) | 3.58 (±0.23) | 13.3% | 39.13 | 14% | 35.00 | 42.20 (±2.20) m Eg | 1.92 (±0.20) | 43.33 (±2.10) | 3.66 (±0.20) | – | – | – | – | – | – |
| COc1c(OC(=O)c2ccc(C)cc2)cc2oc(-c3ccccc3)cc(=O)c2c1O [ORPM-1, 4-methyl-benzoic acid 5-hydroxy-6-methoxy-4-oxo-2-phenyl-4-H-chromen-7-yl ester] | – | 47.50 (±1.11) | 44.24 (±0.62) mEg | 3.0 (±1.50) | 3.50 (±0.18) | – | 37.49 | – | 22.85 | 45.24 (±0.30) m Eg | 2.20 (±0.22) | 41.66 (±2.78) | 3.20 (±0.25) | – | 28.75% | 16.91% | 24.23% | 16.87% | – |
| COc1c(O)cc2oc(-c3ccccc3)cc(=O)c2c1O [Oroxylin A, 5,7-Dihydroxy-6-methoxy-2-phenylchromen-4-one] | 27.5% | 48.33 (±3.33) | 48.24 (±2.84) mEg | 4.0 (±0.45) | 3.19 (±0.73) | 5.81% | 42.50 | 5.26% | 38.57 | 55.24 (±2.40) m Eg | 2.30 (±0.42) | 50.80 (±2.00) | 2.74 (±0.24) | 0% | – | – | – | – | – |
| CNC(=C[N+](=O)[O-])NCCSCc1ccc(CN(C)C)o1 [Ranitidine, ranitidine, reference compound] | – | – | – | – | – | – | – | – | – | – | – | – | – | – | – | – | – | – | inhibition at 50 mg/kg ([1]; Rattus norvegicus, 50 mg/kg): 61.3%; Ulcer index Mean(SE) ([1]; 50 mg/kg): 25.83 (±2.22); Acidity Total mEg ([1]; 50 mg/kg): 26.74 (±1.54) mEg; Gastric content ([1]; 50 mg/kg): 5.0 (±0.48); pH ([1]; 50 mg/kg): 4.96 (±0.13); inhibition at 50 mg/kg ([2]; Rattus norvegicus, po, 120 h, 50 mg/kg per orally daily for five days): 74.2%; Ulcer index Mean(SE) ([2]; 50 mg/kg per orally daily for five days): 11.66; inhibition at 50 mg/kg ([3]; Rattus norvegicus, po, 50 mg/kg per orally): 78.8%; Ulcer index Mean(SE) ([3]; 50 mg/kg per orally): 08.62; Acidity Total mEg (Pylorus ligated rats; 50 mg/kg): 31.8 (±1.91) m Eg; Gastric content (Pylorus ligated rats; 50 mg/kg): 1.82 (±0.44); Ulcer index Mean(SE) (Pylorus ligated rats; 50 mg/kg): 10.83 (±3.21); pH (Pylorus ligated rats; 50 mg/kg): 4.75 (±0.22); inhibition at 50 mg/kg (Pylorus ligated rats; Rattus norvegicus, 50 mg/kg): 78.4% |
